According to PubChem BioAssay (NCI):
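Test compounds were applied to cells in 96-well plates for 48 hours at 5 doses. TGI marks complete inhibition of growth.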

What was measured:
Assay in all cases: DTP human tumour cell line panel, 48 h
A498 renal = system: A498 renal
BT-549 breast = system: BT-549 breast
EKVX NSCLC = system: EKVX NSCLC
HL-60(TB) leukemia = system: HL-60(TB) leukemia
HOP-92 NSCLC = system: HOP-92 NSCLC
M14 melanoma = system: M14 melanoma
MDA-MB-435 = system: MDA-MB-435
MOLT-4 leukemia = system: MOLT-4 leukemia
NCI-H522 lung = system: NCI-H522 lung
NCI/ADR-RES ovarian = system: NCI/ADR-RES ovarian
OVCAR-8 ovarian = system: OVCAR-8 ovarian
SF-268 CNS = system: SF-268 CNS
SK-MEL-5 melanoma = system: SK-MEL-5 melanoma
SK-OV-3 ovarian = system: SK-OV-3 ovarian
SNB-19 CNS = system: SNB-19 CNS
SNB-75 CNS = system: SNB-75 CNS
UACC-62 melanoma = system: UACC-62 melanoma

Structure (SMILES)	TGI (A498 renal) [µM]	TGI (BT-549 breast) [µM]	TGI (EKVX NSCLC) [µM]	TGI (HL-60(TB) leukemia) [µM]	TGI (HOP-92 NSCLC) [µM]	TGI (M14 melanoma) [µM]	TGI (MDA-MB-435) [µM]	TGI (MOLT-4 leukemia) [µM]	TGI (NCI-H522 lung) [µM]	TGI (NCI/ADR-RES ovarian) [µM]	TGI (OVCAR-8 ovarian) [µM]	TGI (SF-268 CNS) [µM]	TGI (SK-MEL-5 melanoma) [µM]	TGI (SK-OV-3 ovarian) [µM]	TGI (SNB-19 CNS) [µM]	TGI (SNB-75 CNS) [µM]	TGI (UACC-62 melanoma) [µM]
CC1(C)OC(=O)N(c2ccccc2)C12C=Cc1cccc([N+](=O)[O-])c1O2 (stereo unspecified)	> 100	> 100	> 100	58.7	> 100	> 100	> 100	74.1	> 100	> 100	> 100	> 100	> 100	76.2	> 100	> 100	> 100
CC(=O)OCC1OC(Nn2c(=O)[nH]c3ccccc3c2=O)C(OC(C)=O)C(OC(C)=O)C1OC(C)=O (stereo unspecified)	> 100	> 100	> 100	> 100	> 100	> 100	> 100	> 100	> 100	> 100	> 100	> 100	> 100	> 100	> 100	> 100	> 100
NC(=O)Cc1nc2c(N)ncnc2n1C1OC(CO)C(O)C1O (stereo unspecified)	> 100	> 100	> 100	> 100	> 100	> 100	> 100	> 100	> 100	> 100	> 100	> 100	> 100	> 100	> 100	–	> 100
COc1cc(/C=N/n2c(-c3ccccc3)nn(C(C)=O)c2=O)cc(OC)c1OC	23.3	> 74.2	99.2	9.68	> 89.7	> 58.9	1.96	> 52.7	8.56	> 42.6	> 82.2	> 100	6.68	> 39.9	> 52.3	21.1	31.4
COC(=O)C(Cc1c[nH]c2ccccc12)NC(=O)c1ccc(-c2ccc(Cl)cc2Cl)o1 (stereo unspecified)	67.9	> 100	> 100	> 100	71.4	> 100	> 100	> 100	> 100	> 100	> 100	> 100	–	> 100	> 100	> 100	> 100
CC(=O)Nc1c(C)cc2c(nc3n2CCC3OC(C)=O)c1[N+](=O)[O-] (stereo unspecified)	> 100	> 100	> 100	> 100	> 100	> 100	> 100	> 100	> 100	> 100	> 100	> 100	> 100	> 100	> 100	> 100	> 100
CCOC(=O)C1(C(=O)OCC)OC(C)=NC1(C(=O)OC)C(=O)OC	> 100	> 31.6	> 100	> 100	> 26.4	> 100	> 100	> 100	–	> 100	> 100	> 100	> 100	> 100	> 100	98.1	> 100
Cc1ccc(O)c(C2=CC(c3cccc(Cl)c3)SC(N)=N2)c1 (stereo unspecified)	–	85	61.8	61.6	42.9	68.3	37.1	61.4	34	> 100	> 100	> 100	30.1	80	37.7	–	28.8
CCOC(=O)c1cc2/c(=C\c3ccc(N(C)C)cc3)c3ccccc3n2[n+]1C	27.7	7.11	21.5	2.37	14.9	15.2	11.5	> 23.4	–	> 100	36.1	19.7	4.04	16.3	15.6	–	14.2
CCCCCCCCCCCCCCCCCCNC(=S)/N=C\C1=C(O)c2ccccc2C1=O	40	33.9	28	> 100	14.1	22	30.9	16.5	–	31.7	32	22.1	34.7	33.6	35.9	–	–
N#Cc1c(-c2ccc(Cl)cc2)[nH]c(=O)n(C2OC(CO)C(O)C(O)C2O)c1=O (stereo unspecified)	> 100	> 100	> 100	> 100	> 100	> 100	> 100	> 100	> 100	> 100	> 100	> 100	> 100	> 100	> 100	> 100	> 100
O=c1[nH]nc(Cc2c[nH]c3ccccc23)o1	> 100	> 100	> 100	> 100	> 100	> 100	> 100	> 100	> 100	> 100	> 100	> 100	> 100	–	> 100	–	> 100
CC1(C)Cc2nc3c(cc2C(=O)C1C=N/C(C#N)=C(\N)C#N)C(=O)C(C=N/C(C#N)=C(\N)C#N)C(C)(C)C3 (stereo unspecified)	15.4	5.51	6.01	10.1	3.33	3.05	3.48	> 100	2.3	> 42	8.71	3.39	4.66	> 34.9	21.5	4.17	3.56
CCC(=O)Nc1ccc(NC(C#N)c2cccc(Oc3ccccc3)c2)cc1 (stereo unspecified)	> 100	> 100	> 100	46.8	> 100	> 100	> 100	36	> 100	> 100	73.4	> 100	48.1	> 100	> 100	> 100	> 100
OC(c1ccc(C(F)(F)F)cc1)C(F)(F)c1nc2ccccc2o1 (stereo unspecified)	–	> 100	> 100	> 100	> 100	> 100	> 100	> 100	–	> 100	> 100	> 100	> 100	> 100	> 100	> 100	> 100
COc1ccc(C2SCC(=O)N2NC(=O)c2ccc(NC(C)=O)cc2)c(OC)c1 (stereo unspecified)	> 100	> 100	> 100	> 100	> 100	> 100	> 100	> 100	–	> 100	> 100	> 100	> 100	> 100	> 100	> 100	> 100
Cn1c(=O)c2c(nc3n2CCCC(=O)N3CC(O)CCl)n(C)c1=O (stereo unspecified)	> 100	> 100	> 100	> 100	> 100	> 100	> 100	> 100	> 100	> 100	> 100	> 100	> 100	> 100	> 100	> 100	> 100
O=C1C2=C(CC3=C(C2)CS(=O)(=O)C3)C(=O)C2=C1CC1=C(C2)CS(=O)(=O)C1	> 90.9	44.8	> 62.7	22	> 77.7	> 54.9	21.1	> 65.6	22.2	66.5	> 59.7	> 47.7	37.3	> 73.2	35.5	> 41	37.1
O=c1ccn(COC(COCc2ccccc2)COCc2ccccc2)c(=O)[nH]1	> 100	> 100	–	> 100	> 100	> 100	> 100	> 100	–	> 100	> 100	–	> 100	> 100	> 100	> 100	> 100
NCCCC[C@H](N)C(=O)Nc1ccc(-c2nc3ccccc3s2)cc1	72.9	84.9	23.9	–	> 100	25.1	35.1	31.2	33.9	59.7	40.1	55.6	94.4	39.2	32.3	35.2	59.7
CC(C)C(=O)Nc1cc(C(F)(F)F)ccc1[N+](=O)[O-]	> 100	> 100	> 100	> 100	> 100	> 100	> 100	> 100	> 100	> 100	> 100	> 100	> 100	> 100	> 100	–	> 100
COC(=O)c1cc(C(=CCC[C@H]2CC[C@@]3(C)C(CCC4C3CC[C@@]3(C)C4CC[C@@H]3C(C)CCCC(C)C)C2)c2cc(Cl)c(O)c(C(=O)OC)c2)cc(Cl)c1O (stereo partly specified)	–	> 10	> 10	> 10	> 10	> 10	> 10	> 10	> 10	> 10	> 10	> 10	> 10	> 10	> 10	> 10	> 10
NC(=O)NCCCC(NC(=O)OCCCCCCn1ccc(=O)[nH]c1=O)C(=O)O (stereo unspecified)	–	> 100	> 100	> 100	> 100	> 100	> 100	> 100	–	> 100	> 100	> 100	–	> 100	> 100	> 100	> 100
C=C(CCC/C(C)=C/C=C/[C@@H](C)CCCc1ccoc1)C[C@@H]1OC(=O)[C@H](C)[C@@H]1O	15.3	17.1	19.4	–	19.6	19.9	16.3	> 50	15.5	19.9	21.3	18.5	14.3	15.8	17.8	19	12.3
CC[C@@]1(C)CCC2c3ccc(O)cc3CC[C@H]2C1C (stereo partly specified)	34	33.8	34	29	19.5	30.3	30.2	32.5	36.1	35.7	33.8	30.1	30.7	–	32.1	37.2	28.4
Cc1cc(Cc2cc(C)c(NC(=O)C(=O)C3CCC4=C(SC5C=CC=CC5N4)C3=O)c(C(C)C)c2)cc(C(C)C)c1NC(=O)C(=O)C1CCC2=C(SC3C=CC=CC3N2)C1=O (stereo unspecified)	> 100	> 100	> 100	> 100	> 100	> 100	> 100	> 100	67.2	> 100	> 100	> 100	> 100	> 100	–	> 100	> 100
COc1cc(-c2cc(=O)c3c(O)c(CC=C(C)C)c(O)cc3o2)ccc1O	> 50	> 50	32.5	> 50	> 50	39.7	22	> 50	–	> 50	> 50	> 50	> 50	> 50	> 50	–	> 50
C=CCN(C(=O)OC(C)(C)C)[C@H](C)C(=O)N[C@@H](C)C(=O)OC	> 100	> 100	> 100	> 100	> 100	> 100	> 100	> 100	> 100	> 100	> 100	> 100	> 100	> 100	> 100	–	> 100
